Like-named read-outs stand apart in the source and are kept apart here.
Legend:
[1] = tested on: LPS-neuroinflammatory mouse model; experiment: Novel object recognition (NOR) test in LPS-neuroinflammatory mouse model; assay type: in vivo, Swiss albino mice; conditions: drug control group (saline + LCA 20 mg/kg ip) vs control group
Source text: (§1) A neuroinflammatory mouse model induced by LPS was developed as described before by Lee et al. ([2008a]). This neuroinflammatory model was well-characterized previously by our research group, showing memory impairment, neuroinflammation, and neurodegenerative changes in the cortex and hippocampus (Zakaria et al. [2016]; Abdel-Kader et al. [2021]; Samir et al. [2023]; Wagdy et al. [2023]).
(§2) Mice were divided randomly into four groups as follows: (i) control group, mice received vehicle injections (saline followed by DMSO/corn-oil vehicle); (ii) LPS onlygroup, LPS followed by the DMSO/corn-oil vehicle; (iii) treatment group, LPS followed by LCA; and (iv) drug control group, saline followed by LCA. […] This timing also avoids potential direct pharmacological interaction and is consistent with previous post-LPS treatment protocols (Zakaria et al. [2016]; Badshah et al. [2016]).
(§3) The behavioral assessment was performed 24 h after the final dose (day 8), after which all mice were sacrificed, and their brains were collected for subsequent bioanalysis (Fig. 1).
A total number of 40 mice were randomly assigned into four groups (n = 10 per group) before performing the behavioral experiments and kept blinded throughout the study until all data had been collected. The experimental unit in these assays was a single animal, and the primary outcomes were memory and cognitive functions. […]

[2] = tested on: LPS-neuroinflammatory mouse model; experiment: Y-maze spontaneous alternation test in LPS-neuroinflammatory mouse model; assay type: in vivo, Swiss albino mice
Procedure: as §1, with “[2023]). […]” for “[2023]).”
The short-term spatial working memory and exploratory activity of the mice were assessed using the Y-maze spontaneous alteration test, according to the working protocol of Arai et al. ([2001]). […] The sequences of animal’s entries in the arms were recorded. For an entry to be counted, the four paws and the tail of the animal have to be inside the arm. […] Working memory was calculated based on the number of spontaneous alternations, which is defined as successive entries into three distinct arms consecutively without any repeated entry to any of the arms. The results were expressed as “spontaneous alternation percentage” using the equation: % spontaneous alternation = [Spontaneous alternations/(Total number of entries − 2)] × 100.

[3] = Permeability of LCA across BBB: GC-MS/MS detection and quantification in brain tissue after the treatment regimen; assay type: in vivo, Swiss albino mice; conditions: treated (LPS + LCA) and drug control groups; peak at RT 11.22 min
Source text: as §2, §3
(§4) Mice were sacrificed by cervical dislocation, and their brains were collected and separated from the cerebellum. The collected brains were washed with ice-cold Tris buffer (5 mM, pH 7.4) and then homogenized with 1 mL of the Tris buffer/100 mg brain using the 5-mL Dounce homogenizer. The brain homogenates were stored at − 80 °C till analysis. […] The homogenization included the entire brain components, allowing for a comprehensive analysis of LCA in the samples.
Brain homogenates were removed from the − 80 °C freezer and allowed to come to room temperature. […]
For both qualitative and quantitative analysis on mice brain samples, the MSD was operated in time-segmented MRM mode for the selected transition ions.

[4] = Pharmacokinetic study of LCA in mice brain tissues (non-compartmental analysis); assay type: in vivo, Swiss albino mice
Procedure: as §4
Brain homogenates were removed from the − 80 °C freezer and allowed to come to room temperature. Brain matrix extraction was performed as described before (Paulke et al. [2006]) with slight modifications. Briefly, in tightly sealed polypropylene tubes, 300 µL brain homogenate was mixed with 300 µL methanol, 200 µL tert-butyl hydroquinone (TBHQ) solution (5 mg/mL), and 200 µL HCl (1 M). The reaction mixture was vortexed for 1 min and inserted into a heat block at 90 °C for 2 h. The reaction tubes were then centrifuged at 3700 × g for 10 min, and the supernatant was collected in micro-centrifuge tubes and transferred for derivatization.
The chosen method for derivatization in this study involves silylation, utilizing the N, O-Bis(trimethylsilyl) trifluoroacetamide (BSTFA) as a silylating agent. The derivatization reaction is employed to produce silyl derivatives of the analyte, which are more volatile and more thermally stable. The reaction replaces active hydrogens with trimethylsilyl groups (TMS) through SN2 nucleophilic attack (Halket and Zaikin [2003]). Extracted samples or reference standards were first placed in a vacuum concentrator for 2 h before performing the derivatization reaction to ensure complete dryness. Dried sample residues were derivatized by adding 150 µL of the mixture of BSTFA and pyridine in a (4:1) ratio into the samples’ tubes. The derivatization reaction was performed at 60 °C for 1 h (Fig. 2). The tubes were centrifuged at 21,460 × g for 1 min and transferred to glass vials suitable for GC–MS/MS analysis.
For pharmacokinetic analysis, 30 adult male Swiss albino mice were randomly divided into six groups (n = 5 for each group), according to sample collection times. […] Mice were sacrificed, and brain tissues were collected after 0, 2, 4, 6, 8, and 24 h post-dosing and were then kept at − 80 °C before sample treatment. Collected brain samples were then extracted and derivatized as described previously and then further analyzed using the GC–MS/MS in MRM mode using the established MRM transitions. Pharmacokinetic parameters were determined by non-compartmental analysis using PK solutions software, version 2.0 (Summit Research Services).

[5] = parameters: method as in Weng et al. [2019]; conditions: ref Weng et al. [2019], cited from earlier work
[6] = male, Swiss albino, mouse, brain, ip, 20 mg/kg
[7] = single ip 20 mg/kg LCA after 7 days LPS, brain tissue, mean ± SD, n = 5
[8] = intravenous 5 mg/kg single dose

## C=CC(C)(C)c1cc(/C=C/C(=O)c2ccc(O)cc2)c(OC)cc1O [LCA, (2E)−3-[4-Hydroxy-2-methoxy-5-(2-methylbut-3-en-2-yl)phenyl]−1-(4-hydroxyphenyl)prop-2-en-1-one]
[1]
  non-spatial memory (NOR), LCA alone vs control: did not show alteration
[2]; LPS + LCA vs LPS group, LCA 20 mg/kg ip days 4-7, LPS 250 µg/kg ip days 1-7, tested day 8, p < 0.01
  explorative behavior / spatial short-term memory (spontaneous alternation %, Y-maze): restored the explorative behavior
[2]; drug control group (saline + LCA 20 mg/kg ip) vs control group
  spatial short-term memory (Y-maze), LCA alone vs control: did not show alteration
[3]
  detection of LCA in brain (passage of BBB): presence of LCA peak
[4]; [6]
  Tmax: 4 h
  half-life: 17.1 ± 5.98 h
[4]; male, Swiss albino, mouse, brain, ip, 20 mg/kg, read-out: MRT0-t
  MRT last: 10.5 ± 0.69 h
[4]; [7]
  Cl/F: 17.90 ± 5.33 (mg/kg)/h
  Vz/F: 529.74 ± 139.18 mg/kg
[4]; single ip 20 mg/kg LCA after 7 days LPS, up to 8 h post-injection
  concentration in brain tissue until 8 h post-injection: above 15 µg/mg
[5]; [8]
  Cmax (plasma): 3173.5 ± 483.0 ng/mL
  Tmax (plasma): 0.0833 h
[5]; oral 15 mg/kg single dose
  Cmax (plasma): 60.7 ± 13.9 ng/mL
  Tmax (plasma): 0.5 h

— article PMC12901191, “Detection and pharmacokinetics of licochalcone A in brains of neuroinflammatory mouse model” (Naunyn-Schmiedeberg's Archives of Pharmacology, 2025)
